Experimental data reported in PubChem BioAssay (NCI).
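A five-concentration, 48-hour dose response in 96-well plates underlies each endpoint, interpolated linearly between surrounding concentrations. The concentration for 50% growth inhibition is given as GI50. TGI: concentration producing complete growth inhibition.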

Experiments:
Experiment in all cases: growth of human tumour cells (NCI), 48 h
HOP-92 NSCLC = tested on: HOP-92 NSCLC
U251 CNS = tested on: U251 CNS
OVCAR-3 ovarian = tested on: OVCAR-3 ovarian
MALME-3M melanoma = tested on: MALME-3M melanoma
SNB-75 CNS = tested on: SNB-75 CNS
MOLT-4 leukemia = tested on: MOLT-4 leukemia
SK-MEL-28 melanoma = tested on: SK-MEL-28 melanoma
SW-620 colon = tested on: SW-620 colon
KM12 colon = tested on: KM12 colon
HCT-15 colon = tested on: HCT-15 colon

`S=P1(N2CCCCC2)Oc2ccc3ccccc3c2-c2c(ccc3ccccc23)O1` was tested, and the TGI (HOP-92 NSCLC) was greater than 100 µM, the TGI (U251 CNS) was greater than 100 µM and the TGI (OVCAR-3 ovarian) was greater than 88.3 µM. For the same molecule, the TGI (MALME-3M melanoma) was greater than 59.6 µM, the TGI (SNB-75 CNS) was greater than 92.1 µM and the TGI (MOLT-4 leukemia) was greater than 100 µM. The TGI (SK-MEL-28 melanoma) was greater than 100 µM, the TGI (SW-620 colon) was greater than 100 µM and the TGI (KM12 colon) was greater than 100 µM. For the same molecule, the TGI (HCT-15 colon) was greater than 100 µM.
Molecule `N=C(N)c1ccc(-c2ccc(-c3ccccc3)s2)cc1` has a GI50 (HOP-92 NSCLC) of 1.55 µM, a TGI (HOP-92 NSCLC) of 3.34 µM and a GI50 (MALME-3M melanoma) of 1.45 µM. The TGI (MALME-3M melanoma) was 2.83 µM, the GI50 (SK-MEL-28 melanoma) was 1.67 µM and the TGI (SK-MEL-28 melanoma) was 3.13 µM.
Molecule `COc1cc(/C=C/c2cc(/C=C/c3ccc(O)c(OC)c3)nc(N)n2)ccc1O` has a GI50 (HOP-92 NSCLC) of 1.26 µM, a TGI (HOP-92 NSCLC) of 5.19 µM and a GI50 (U251 CNS) of 1.79 µM. For the same molecule, the TGI (U251 CNS) was 5.69 µM, the GI50 (OVCAR-3 ovarian) was 2.65 µM and the TGI (OVCAR-3 ovarian) was 8.62 µM. It also gave a GI50 (MALME-3M melanoma) of 2.71 µM, a TGI (MALME-3M melanoma) of 6.76 µM and a GI50 (SNB-75 CNS) of 1.26 µM. It also gave a TGI (SNB-75 CNS) of 3.34 µM, a GI50 (MOLT-4 leukemia) of 1.01 µM and a TGI (MOLT-4 leukemia) of 5.19 µM. For the same molecule, the GI50 (SK-MEL-28 melanoma) was 1.85 µM, the TGI (SK-MEL-28 melanoma) was 4.53 µM and the GI50 (KM12 colon) was 1.63 µM. It also gave a TGI (KM12 colon) of 3.32 µM, a GI50 (HCT-15 colon) of 2.82 µM and a TGI (HCT-15 colon) of 10.3 µM.
Work on `C=C1C(=O)C[C@@]23CCC[C@@]12CC(OCOC)C3` (stereo partly specified) yielded a TGI (HOP-92 NSCLC) of 7.43 µM, a TGI (U251 CNS) of 21 µM and a TGI (OVCAR-3 ovarian) of 6.48 µM. It also gave a TGI (MALME-3M melanoma) of 8.38 µM, a TGI (SNB-75 CNS) of 6.41 µM and a TGI (MOLT-4 leukemia) of 9.93 µM. For the same molecule, the TGI (SK-MEL-28 melanoma) was 8.14 µM, the TGI (SW-620 colon) was 3.97 µM and the TGI (KM12 colon) was 9.48 µM. The TGI (HCT-15 colon) was 3.08 µM.
`Nc1nc(Cl)cc(OCC2(CO)CC(OCc3ccccc3)C2)n1` (stereo unspecified) was tested, and the GI50 (HOP-92 NSCLC) was 49.9 µM, the GI50 (U251 CNS) was 55 µM and the GI50 (OVCAR-3 ovarian) was 47.1 µM. For the same molecule, the GI50 (MALME-3M melanoma) was 84.5 µM, the GI50 (SNB-75 CNS) was 27.9 µM and the GI50 (MOLT-4 leukemia) was 22 µM. The TGI (MOLT-4 leukemia) was 95.5 µM, the GI50 (SK-MEL-28 melanoma) was 96.9 µM and the GI50 (KM12 colon) was 55.5 µM. It also gave a GI50 (HCT-15 colon) of 83.8 µM.
`O=[N+]([O-])c1ccccc1NC1c2ccccc2Oc2ccccc21` gave a GI50 (HOP-92 NSCLC) of 4.22 µM, a TGI (HOP-92 NSCLC) greater than 100 µM and a GI50 (U251 CNS) of 4.88 µM. It also gave a TGI (U251 CNS) greater than 100 µM, a GI50 (OVCAR-3 ovarian) of 3.64 µM and a TGI (OVCAR-3 ovarian) greater than 100 µM. It also gave a GI50 (MALME-3M melanoma) of 7.13 µM, a TGI (MALME-3M melanoma) greater than 100 µM and a GI50 (SNB-75 CNS) of 2.94 µM. It also gave a TGI (SNB-75 CNS) of 38.6 µM, a GI50 (MOLT-4 leukemia) of 5.03 µM and a TGI (MOLT-4 leukemia) greater than 100 µM. The GI50 (SK-MEL-28 melanoma) was 4.85 µM, the TGI (SK-MEL-28 melanoma) was greater than 100 µM and the GI50 (SW-620 colon) was 3.55 µM. For the same molecule, the TGI (SW-620 colon) was greater than 100 µM, the GI50 (KM12 colon) was 4.34 µM and the TGI (KM12 colon) was greater than 100 µM. It also gave a GI50 (HCT-15 colon) of 3.5 µM and a TGI (HCT-15 colon) greater than 100 µM.
`COC(=O)c1cccc(N[C@@H]2c3cc4c(cc3C(c3cc(OC)c(O)c(OC)c3)[C@H]3C(=O)OCC32)OCO4)c1` (stereo partly specified) gave a TGI (HOP-92 NSCLC) of 7.14 µM, a TGI (U251 CNS) of 12.2 µM and a TGI (OVCAR-3 ovarian) of 33.7 µM. The TGI (MALME-3M melanoma) was 27.8 µM, the TGI (SNB-75 CNS) was greater than 21 µM and the TGI (MOLT-4 leukemia) was 1.36 µM. It also gave a TGI (SK-MEL-28 melanoma) greater than 100 µM, a TGI (SW-620 colon) greater than 100 µM and a TGI (KM12 colon) of 10.2 µM. For the same molecule, the TGI (HCT-15 colon) was 4.54 µM.
With `Cc1cc(C)c2c(c1)CC1(Cc3c(C)ccc(C)c3C1=O)C2=O` (stereo unspecified) the TGI (HOP-92 NSCLC) was greater than 100 µM, the TGI (U251 CNS) was greater than 100 µM and the TGI (OVCAR-3 ovarian) was greater than 100 µM. For the same molecule, the TGI (MALME-3M melanoma) was greater than 100 µM, the TGI (SNB-75 CNS) was greater than 100 µM and the TGI (MOLT-4 leukemia) was greater than 100 µM. For the same molecule, the TGI (SK-MEL-28 melanoma) was greater than 100 µM, the TGI (SW-620 colon) was greater than 100 µM and the TGI (KM12 colon) was greater than 100 µM. The TGI (HCT-15 colon) was greater than 100 µM.
`Cc1ccc([N+](=O)[O-])cc1S(=O)(=O)Nc1ccc(C2=NNC(c3ccccc3O)C2)cc1` (stereo unspecified) showed a TGI (HOP-92 NSCLC) greater than 100 µM, a TGI (OVCAR-3 ovarian) of 43.7 µM and a TGI (MALME-3M melanoma) of 96.3 µM. It also gave a TGI (SNB-75 CNS) greater than 100 µM, a TGI (MOLT-4 leukemia) of 96.3 µM and a TGI (SK-MEL-28 melanoma) greater than 100 µM. The TGI (SW-620 colon) was greater than 100 µM, the TGI (KM12 colon) was 76.7 µM and the TGI (HCT-15 colon) was 97.6 µM.
For `CCCCCCCC/C=C\CCCCCCCC(=O)O`, the TGI (HOP-92 NSCLC) was greater than 5 µM, the TGI (U251 CNS) was 231 µM and the TGI (OVCAR-3 ovarian) was greater than 232 µM. For the same molecule, the TGI (MALME-3M melanoma) was greater than 500 µM, the TGI (SNB-75 CNS) was 29.6 µM and the TGI (MOLT-4 leukemia) was 331 µM. It also gave a TGI (SK-MEL-28 melanoma) of 329 µM, a TGI (SW-620 colon) of 355 µM and a TGI (KM12 colon) greater than 500 µM. For the same molecule, the TGI (HCT-15 colon) was 338 µM.
With `CCN(CC)CCCNc1ncc(C)c2[nH]c3ccncc3c12` the TGI (HOP-92 NSCLC) was 26.3 µM, the TGI (U251 CNS) was 30.6 µM and the TGI (OVCAR-3 ovarian) was 56.3 µM. The TGI (MALME-3M melanoma) was 27.4 µM, the TGI (SNB-75 CNS) was 27.7 µM and the TGI (MOLT-4 leukemia) was 18.4 µM. The TGI (SK-MEL-28 melanoma) was 27.4 µM, the TGI (SW-620 colon) was 36.9 µM and the TGI (KM12 colon) was 42 µM. For the same molecule, the TGI (HCT-15 colon) was greater than 100 µM.
Molecule `N=c1c2c(=S)n(-c3ccccc3)c(=S)n(-c3ccccc3)c2nc(SCCCN2CCN(c3cccc(Cl)c3)CC2)n1-c1ccccc1` has a TGI (HOP-92 NSCLC) greater than 100 µM, a TGI (U251 CNS) greater than 100 µM and a TGI (OVCAR-3 ovarian) greater than 100 µM. For the same molecule, the TGI (MALME-3M melanoma) was greater than 100 µM, the TGI (SNB-75 CNS) was greater than 100 µM and the TGI (MOLT-4 leukemia) was greater than 100 µM. For the same molecule, the TGI (SK-MEL-28 melanoma) was greater than 100 µM, the TGI (SW-620 colon) was greater than 100 µM and the TGI (KM12 colon) was greater than 100 µM. The TGI (HCT-15 colon) was greater than 100 µM.
With `O=C(O)CNc1ccc(C(=O)O)cc1` the TGI (HOP-92 NSCLC) was greater than 100 µM, the TGI (U251 CNS) was greater than 100 µM and the TGI (OVCAR-3 ovarian) was greater than 100 µM. It also gave a TGI (MALME-3M melanoma) greater than 100 µM, a TGI (SNB-75 CNS) greater than 100 µM and a TGI (MOLT-4 leukemia) greater than 100 µM. The TGI (SK-MEL-28 melanoma) was greater than 100 µM, the TGI (SW-620 colon) was greater than 100 µM and the TGI (KM12 colon) was greater than 100 µM. It also gave a TGI (HCT-15 colon) greater than 100 µM.
`O=C(O)CS` was tested, and the TGI (HOP-92 NSCLC) was greater than 100 µM, the TGI (U251 CNS) was greater than 100 µM and the TGI (MALME-3M melanoma) was greater than 100 µM. It also gave a TGI (SNB-75 CNS) greater than 100 µM, a TGI (MOLT-4 leukemia) greater than 100 µM and a TGI (SK-MEL-28 melanoma) greater than 100 µM. It also gave a TGI (SW-620 colon) greater than 100 µM, a TGI (KM12 colon) greater than 100 µM and a TGI (HCT-15 colon) greater than 100 µM.
Molecule `CCNc1nnc(-c2nsc3ccccc23)s1` has a TGI (HOP-92 NSCLC) greater than 100 µM, a TGI (U251 CNS) greater than 100 µM and a TGI (OVCAR-3 ovarian) of 57.6 µM. The TGI (SNB-75 CNS) was 36.1 µM, the TGI (MOLT-4 leukemia) was greater than 100 µM and the TGI (SK-MEL-28 melanoma) was greater than 100 µM. For the same molecule, the TGI (SW-620 colon) was greater than 100 µM, the TGI (KM12 colon) was greater than 100 µM and the TGI (HCT-15 colon) was greater than 100 µM.
